Entries after “also recorded” stand apart in the source; their conditions may differ. Like-named read-outs stand apart in the source and are kept apart here. One block for each compound: values may come before it.
Experiments:
human TRPM2 = target: T1, human TRPM2 (Homo sapiens, UniProt O94759); assay: Whole-cell patch clamp, antagonism of TRPM2 activation by 100 μM ADPR in HEK293 clone TRPM2#24; format: cell-based; conditions: for Antagonist activity at TRPM2, in words: analogue concentration not printed in the sentence (most analogues tested at 900 μM); for Mean outward current of 100 μM ADPR (1) infusion: mean ± SEM
T1 construct: Specific bands of full length TRPM2 (black arrow) and degradation products (gray arrows) are marked; expressed in transfected cells
T1 sequence (O94759 whole entry, the tested form may be a part): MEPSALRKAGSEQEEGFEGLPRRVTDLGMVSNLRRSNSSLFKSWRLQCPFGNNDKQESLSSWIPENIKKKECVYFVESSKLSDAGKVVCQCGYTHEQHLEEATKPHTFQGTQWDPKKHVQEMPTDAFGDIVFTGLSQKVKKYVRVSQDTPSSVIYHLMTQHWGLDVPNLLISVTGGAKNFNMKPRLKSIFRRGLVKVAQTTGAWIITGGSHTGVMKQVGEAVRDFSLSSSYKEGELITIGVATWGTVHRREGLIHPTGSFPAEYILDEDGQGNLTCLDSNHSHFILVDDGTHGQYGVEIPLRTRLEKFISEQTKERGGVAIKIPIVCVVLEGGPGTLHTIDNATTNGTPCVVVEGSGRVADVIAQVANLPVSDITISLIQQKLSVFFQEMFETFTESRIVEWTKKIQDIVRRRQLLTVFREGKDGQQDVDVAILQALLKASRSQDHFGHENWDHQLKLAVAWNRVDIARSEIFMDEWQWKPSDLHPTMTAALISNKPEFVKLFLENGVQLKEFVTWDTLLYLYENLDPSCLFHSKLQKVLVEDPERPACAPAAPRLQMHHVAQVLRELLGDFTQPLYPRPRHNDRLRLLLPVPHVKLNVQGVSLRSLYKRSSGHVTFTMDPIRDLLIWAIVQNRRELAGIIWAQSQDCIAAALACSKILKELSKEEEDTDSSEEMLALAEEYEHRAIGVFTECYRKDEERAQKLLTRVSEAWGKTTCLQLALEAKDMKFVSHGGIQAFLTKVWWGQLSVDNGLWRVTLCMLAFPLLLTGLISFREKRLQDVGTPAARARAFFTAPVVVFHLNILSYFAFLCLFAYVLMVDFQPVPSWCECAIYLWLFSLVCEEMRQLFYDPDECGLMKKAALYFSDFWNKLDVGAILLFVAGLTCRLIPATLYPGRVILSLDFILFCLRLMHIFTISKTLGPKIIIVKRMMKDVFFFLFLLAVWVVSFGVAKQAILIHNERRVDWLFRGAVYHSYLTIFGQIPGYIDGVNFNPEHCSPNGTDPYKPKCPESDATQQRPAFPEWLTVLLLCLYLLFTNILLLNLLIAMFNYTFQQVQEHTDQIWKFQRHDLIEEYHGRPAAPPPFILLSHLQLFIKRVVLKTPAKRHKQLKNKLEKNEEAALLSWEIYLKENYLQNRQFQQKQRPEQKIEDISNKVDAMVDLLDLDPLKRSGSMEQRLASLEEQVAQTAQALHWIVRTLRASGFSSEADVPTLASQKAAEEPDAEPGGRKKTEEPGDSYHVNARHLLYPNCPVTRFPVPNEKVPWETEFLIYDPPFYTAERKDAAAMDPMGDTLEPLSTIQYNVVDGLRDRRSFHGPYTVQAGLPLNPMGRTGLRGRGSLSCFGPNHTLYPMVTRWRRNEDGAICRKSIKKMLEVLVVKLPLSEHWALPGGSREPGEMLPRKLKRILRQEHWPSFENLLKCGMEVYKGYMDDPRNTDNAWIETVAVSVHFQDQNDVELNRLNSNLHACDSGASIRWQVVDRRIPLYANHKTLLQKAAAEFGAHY

human neutrophils = assay: Chemotaxis (migration) of primary human neutrophils in fMLP gradient, μ-Slide Chemotaxis; format: cell-based; conditions: 50 nM fMLP gradient; fMLP alone, or with 1.5 mM EGTA, or with 100 μM 8-Ph-ADPR (5); 1 h tracking
TRPM2 = tested on: TRPM2; set-up: method as in PMID 20650899; conditions: even at 60-fold excess of 88 over 1; cited from earlier work
TRPM2 channel = conditions: read-out: TRPM2 inhibition IC50; cited from earlier work
murine neutrophils = tested on: murine neutrophils; set-up: method as in PMID 18025229; conditions: cited from earlier work
[1] = footnote d: could only be tested at 100 μM due to solubility difficulties, 100 μM ADPR, 0.1% DMSO, read-out: Antagonism at TRPM2 (IC50), result as symbol
[2] = analogue tested at 900 μM against 100 μM ADPR, footnote c: antagonistic effect observed but not statistically significant, read-out: Antagonism at TRPM2 (IC50), result as symbol
[3] = analogue 100 μM, equimolar to 100 μM ADPR in pipet solution
[4] = analogue 900 μM with 100 μM ADPR in pipet solution
[5] = against 100 μM ADPR (1) in pipet solution, outward current at +15 mV, HEK293 clone TRPM2#24, read-out: Antagonism at TRPM2 (IC50)

- IC50 (human TRPM2; [1]): > 900 µM
Compound: CCCCCCNc1c(NC[C@H]2O[C@@H](n3cnc4c(N)ncnc43)[C@H](O)[C@@H]2O)c(=O)c1=O [compound 67, 3-(5′-Amino-5′-deoxyadenosine)-4-(hexylamino)cyclobut-3-ene-1,2-dione]

- Antagonist activity at TRPM2, in words (human TRPM2; 100 μM ADPR): inactive
Compound: Nc1ncnc2c1ncn2[C@@H]1O[C@H](COP(=O)(O)OP(=O)(O)O)[C@@H](O)[C@H]1O [compound 44, adenosine 5′-diphosphate, reference compound]

Compound: O=C(O)CN(CCOCCOCCN(CC(=O)O)CC(=O)O)CC(=O)O [EGTA, reference compound]
- Center of mass ∥ (mean movement in the y direction along fMLP gradient) (human neutrophils): 32.6 μm

- Mean outward current of 100 μM ADPR (1) infusion (human TRPM2; control of the set of experiments for 4, n = 16): 1.13 ± 0.14 nA
- Mean outward current of 100 μM ADPR (1) infusion (human TRPM2; control of the set of experiments for 5, n = 16): 1.17 ± 0.13 nA
- Mean outward current of 100 μM ADPR (1) infusion (human TRPM2; control of the set of experiments for 6, n = 20): 1.70 ± 0.25 nA
- Mean outward current of 100 μM ADPR (1) infusion (human TRPM2; control of the set of experiments for 7, n = 22): 1.25 ± 0.14 nA
- Mean outward current of 100 μM ADPR (1) infusion (human TRPM2; control of the set of experiments for 84, n = 8): 1.44 ± 0.20 nA
- Mean outward current of 100 μM ADPR (1) infusion (human TRPM2; control of the set of experiments for 86, n = 15): 1.23 ± 0.22 nA
Compound: Nc1ncnc2c1ncn2[C@@H]1O[C@H](COP(=O)(O)OP(=O)(O)OC[C@H]2OC(O)[C@H](O)[C@@H]2O)[C@@H](O)[C@H]1O (stereo partly shown) [compound 1, Adenosine 5′-diphosphoribose]

- Antagonist activity at TRPM2, in words (human TRPM2; 100 μM ADPR): did not antagonize activation of TRPM2
- IC50 (human TRPM2; [2]): > 900 µM
Compound: O=c1[nH]cnc2c1ncn2[C@@H]1O[C@H](COP(=O)(O)OP(=O)(O)OC[C@H]2OC(O)[C@H](O)[C@@H]2O)[C@@H](O)[C@H]1O (stereo partly shown) [compound 13, Inosine-5′-diphosphoribose]

Compound: Nc1ncnc2c1ncn2[C@@H]1O[C@H](COP(=O)(O)O)[C@@H](O)[C@H]1O [compound 88, adenosine 5′-monophosphate, reference compound]
- Antagonist activity at TRPM2, in words (human TRPM2; 100 μM ADPR): no antagonist activity; also recorded: ineffective
- Inhibition of ADPR-mediated currents, in words (TRPM2): not shown any inhibition

- Antagonism at TRPM2 (IC50) (human TRPM2; against 100 μM ADPR (1) in pipet solution, outward current at +15 mV, HEK293 clone TRPM2#24): upper micromolar range
- Effect on activation of TRPM2 by ADPR (1), in words (human TRPM2; [3]): no inhibition
- Effect on activation of TRPM2 by ADPR (1), in words (human TRPM2; [4]): nearly complete inhibition
Compound: Nc1ncnc2c1ncn2CCCCOP(=O)(O)OP(=O)(O)OC[C@H]1OC(O)[C@H](O)[C@@H]1O (stereo partly shown) [compound 30, 9-(4-Hydroxybutyl)adenine-5′-diphosphoribose]

- Effect on activation of TRPM2 by ADPR (1), in words (human TRPM2; [4]): some antagonist effect
- IC50 (human TRPM2; [2]): > 900 µM
Compound: Nc1ncnc2c1ncn2[C@@H]1O[C@H](COP(=O)(O)OP(=O)(O)OP(=O)(O)OC[C@H]2OC(O)[C@H](O)[C@@H]2O)[C@@H](O)[C@H]1O (stereo partly shown) [compound 47, Adenosine Triphosphoribose]

- IC50 (human TRPM2; [1]): > 900 µM
Compound: CCCCNc1c(NC[C@H]2O[C@@H](n3cnc4c(N)ncnc43)[C@H](O)[C@@H]2O)c(=O)c1=O [compound 66, 3-(5′-Amino-5′-deoxyadenosine)-4-butylamino-cyclobut-3-ene-1,2-dione]

- Antagonist activity at TRPM2, in words (human TRPM2; 100 μM ADPR): without significant effect
- IC50 (human TRPM2; [2]): > 900 µM
Compound: O=c1[nH]cnc2c1ccn2[C@@H]1O[C@H](COP(=O)(O)OP(=O)(O)OC[C@H]2OC(O)[C@H](O)[C@@H]2O)[C@@H](O)[C@H]1O (stereo partly shown) [compound 14, 7-Deaza-IDPR]

- IC50 (human TRPM2; [5]): 100 to 900 µM
- Effect on activation of TRPM2 by ADPR (1), in words (human TRPM2; [3]): antagonist effect was lost
- Effect on activation of TRPM2 by ADPR (1), in words (human TRPM2; [4]): suppressed activation of TRPM2
Compound: Nc1ncnc2c1nc(-c1ccc(CC(N)C(=O)O)cc1)n2[C@@H]1O[C@H](COP(=O)(O)O)[C@@H](O)[C@H]1O (stereo partly shown) [compound 9, 8-(4-(2-Aminopropanoic acid)phenyl)adenosine-5′-monophosphate]

- IC50 (human TRPM2; [1]): > 900 µM
Compound: Nc1ncnc2c1ncn2[C@@H]1O[C@H](CNc2c(NC3CCCC3)c(=O)c2=O)[C@@H](O)[C@H]1O [compound 65, 3-(5′-Amino-5′-deoxyadenosine)-4-(cyclopentylamino)-cyclobut-3-ene-1,2-dione]

Compound: copper ions
- IC50 (TRPM2 channel): 2.6 µM

- Effect on activation of TRPM2 by ADPR (1), in words (human TRPM2; [4]): completely inhibited activation of TRPM2
Compound: Nc1ncnc2c1nc(-c1ccccc1)n2[C@H]1C[C@H](O)[C@@H](COP(=O)(O)OP(=O)(O)OC[C@H]2OC(O)[C@H](O)[C@@H]2O)O1 (stereo partly shown) [compound 86, 8-Phenyl-2′-deoxyadenosine-5′-diphosphoribose]

Compound: Nc1ncnc2c1ncn2[C@H]1C[C@H](O)[C@@H](COP(=O)(O)O)O1 [compound 31, 2′-deoxy-AMP, reference compound]
- Antagonist activity at TRPM2, in words (human TRPM2; 100 μM ADPR): weak antagonist
- IC50 (human TRPM2; [5]): 100 to 900 µM
- Effect on activation of TRPM2 by ADPR (1), in words (human TRPM2; [3]): antagonist effect was lost
- Effect on activation of TRPM2 by ADPR (1), in words (human TRPM2; [4]): suppressed activation of TRPM2

- IC50 (human TRPM2; [1]): > 900 µM
Compound: Nc1ncnc2c1nc(-c1ccccc1)n2[C@@H]1O[C@H](Cn2cc(COC[C@H]3OC(O)[C@H](O)[C@@H]3O)nn2)[C@@H](O)[C@H]1O (stereo partly shown) [compound 73, 1-(5′-Deoxy-8-phenyladenosine)-4-(2″,3″-O-isopropylidene-5″-O-methylribosyl)-1,2,3-triazole]
- Effect on activation of TRPM2 by ADPR (1), in words (human TRPM2; [3]): none of these compounds showed antagonist activity

- Effect on activation of TRPM2 by ADPR (1), in words (human TRPM2; [4]): partial inhibition
Compound: Nc1ncnc2c1ncn2[C@@H]1O[C@H](COP(=O)(O)OP(=O)(O)OC2CCCC2)[C@@H](O)[C@H]1O [compound 80, β-Cyclopentyl-ADP]

Compound: Nc1ncnc2c1nc(Cl)n2[C@@H]1O[C@H](COP(=O)(O)O)[C@@H](O)[C@H]1O [compound 87, 8-Cl-AMP, reference compound]
- Effect on activation of TRPM2 by ADPR (1), in words (human TRPM2; [4]): no antagonist effect
- IC50 (human TRPM2; [2]): > 900 µM

- Effect on activation of TRPM2 by ADPR (1), in words (human TRPM2; [4]): significantly inhibited TRPM2 activation
Compound: Nc1ncnc2c1nc(Br)n2[C@@H]1O[C@H](COP(=O)(O)OP(=O)(O)OC[C@H]2OC(O)[C@H](O)[C@@H]2O)[C@@H](O)[C@H]1O (stereo partly shown) [compound 4, 8-Br-ADPR, reference compound]
- Sensitivity of Ca2+ signalling and chemotaxis of murine neutrophils, in words (murine neutrophils): very sensitive

- Effect on activation of TRPM2 by ADPR (1), in words (human TRPM2; [3]): significant antagonist activity
Compound: Nc1ncnc2c1nc(-c1ccccc1)n2[C@@H]1O[C@H](COP(=O)(O)OP(=O)(O)OC2CCCC2)[C@@H](O)[C@H]1O [compound 84]

- Antagonist activity at TRPM2, in words (human TRPM2; 100 μM ADPR): did not antagonize activation of TRPM2
- IC50 (human TRPM2; [2]): > 900 µM
Compound: Nc1nc(F)nc2c1ncn2[C@@H]1O[C@H](COP(=O)(O)OP(=O)(O)OC[C@H]2OC(O)[C@H](O)[C@@H]2O)[C@@H](O)[C@H]1O (stereo partly shown) [compound 16, 2-F-ADPR]

- Effect on activation of TRPM2 by ADPR (1), in words (human TRPM2; [4]): noticeable antagonist activity
Compound: Nc1ncnc2c1ncn2[C@@H]1O[C@H](COS(=O)(=O)NC(=O)c2ccccc2O)[C@@H](O)[C@H]1O [compound 76, salicyl-adenosine monosulfamide]

- IC50 (human TRPM2; [1]): > 900 µM
Compound: Nc1ncnc2c1ncn2[C@@H]1O[C@H](CNc2c(NC[C@H]3O[C@@H](O)[C@H](O)[C@@H]3O)c(=O)c2=O)[C@@H](O)[C@H]1O [compound 64, 3-(5′-Amino-5′-deoxyadenosine)-4-(5″-amino-5″-deoxy-β-D-ribofuranose)cyclobut-3-ene-1,2-dione]
